Toxic doses and inconclusive results are not listed. Cut-off read from the data, not from the text of the source: active = T/C of 150% or more; inactive = T/C below 125%.
Tested on: L1210 leukemia ip in BDF1 mice, survival T/C
Experiment: NCI In Vivo Anticancer Drug Screen. Data for tumor model L1210 Leukemia (intraperitoneal) in B6D2F1 (BDF1) mice
Conditions: endpoint: mean survival time, higher = longer survival
In short: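 Transplanted-tumor mice were given test agent; controls received vehicle only. Survival readings from the two groups were divided (treated over control).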

[1] = dose: 100.0 mg/kg/injection, schedule: Q01DX001 (ip), vehicle: saline with Tween-80
[2] = dose: 200.0 mg/kg/injection, schedule: Q01DX001 (ip), vehicle: saline with Tween-80
[3] = dose: 12.5 mg/kg/injection, schedule: Q04DX003 (ip), vehicle: Klucel (hydroxypropylcellulose) (HPC)
[4] = dose: 25.0 mg/kg/injection, schedule: Q04DX003 (ip), vehicle: Klucel (hydroxypropylcellulose) (HPC)
[5] = dose: 50.0 mg/kg/injection, schedule: Q04DX003 (ip), vehicle: Klucel (hydroxypropylcellulose) (HPC)
[6] = dose: 100.0 mg/kg/injection, schedule: Q01DX009 (ip), vehicle: saline with Tween-80
[7] = dose: 200.0 mg/kg/injection, schedule: Q01DX009 (ip), vehicle: saline with Tween-80
[8] = dose: 400.0 mg/kg/injection, schedule: Q01DX009 (ip), vehicle: saline with Tween-80

Measured: T/C

CCOC(=O)C12CCC(=O)CC1(O)CCC1(C2)OCCCO1 (stereo unspecified)
inactive: dose: 100.0 mg/kg/injection, schedule: Q## X003 (ip), vehicle: saline 98 % of control | dose: 200.0 mg/kg/injection, schedule: Q## X003 (ip), vehicle: saline 104 % of control | dose: 400.0 mg/kg/injection, schedule: Q## X003 (ip), vehicle: saline 102 % of control

CCc1cc(C(=O)NC(CCC(=O)O)C(=O)O)ccc1NCc1cnc2nc(N)[nH]c(=O)c2n1 (stereo unspecified)
inactive: dose: 50.0 mg/kg/injection, schedule: Q01DX001 (ip), vehicle: saline with Tween-80 106 % of control | [1] 100 % of control | [2] 100 % of control

OCCCOc1ccccc1
inactive: [1] 103 % of control | [2] 97 % of control | dose: 400.0 mg/kg/injection, schedule: Q01DX001 (ip), vehicle: saline with Tween-80 100 % of control

CCOC(=O)c1ccc(=O)n(C)c1
inactive: dose: 100.0 mg/kg/injection, schedule: Q01DX009 (ip), vehicle: saline 102 % of control | dose: 200.0 mg/kg/injection, schedule: Q01DX009 (ip), vehicle: saline 96 % of control | dose: 400.0 mg/kg/injection, schedule: Q01DX009 (ip), vehicle: saline 98 % of control

CCCCc1c(Cl)nc(Cl)nc1Cl
inactive: dose: 25.0 mg/kg/injection, schedule: Q01DX009 (ip), vehicle: saline with Tween-80 105 % of control | dose: 50.0 mg/kg/injection, schedule: Q01DX009 (ip), vehicle: saline with Tween-80 88 % of control

FC1(F)SC2CCCCCCC2C1(F)F (stereo unspecified)
inactive: dose: 12.5 mg/kg/injection, schedule: Q01DX009 (ip), vehicle: Klucel (hydroxypropylcellulose) (HPC) 98 % of control | [3] 97 % of control | dose: 25.0 mg/kg/injection, schedule: Q01DX009 (ip), vehicle: Klucel (hydroxypropylcellulose) (HPC) 104 % of control | [4] 101 % of control | dose: 50.0 mg/kg/injection, schedule: Q01DX009 (ip), vehicle: Klucel (hydroxypropylcellulose) (HPC) 100 % of control | [5] 95 % of control

N=C1C(=O)C(=N)c2ccccc2-c2ccccc21
inactive: dose: 100.0 mg/kg/injection, schedule: Q01DX009 (ip), vehicle: Klucel (hydroxypropylcellulose) (HPC) 94 % of control | dose: 200.0 mg/kg/injection, schedule: Q01DX009 (ip), vehicle: Klucel (hydroxypropylcellulose) (HPC) 97 % of control | dose: 400.0 mg/kg/injection, schedule: Q01DX009 (ip), vehicle: Klucel (hydroxypropylcellulose) (HPC) 95 % of control

CC(=O)OCCOC(C)=O
inactive: dose: 100.0 mg/kg/injection, schedule: Q01DX001 (ip), vehicle: saline 103 % of control | dose: 200.0 mg/kg/injection, schedule: Q01DX001 (ip), vehicle: saline 97 % of control | dose: 400.0 mg/kg/injection, schedule: Q01DX001 (ip), vehicle: saline 94 % of control

CC(C)C1=CC23CCC4C(C)(C(=O)O)CCCC4(C)C2CC1OO3 (stereo unspecified)
inactive: [6] 100 % of control | [7] 97 % of control | [8] 97 % of control

CCCCCCCC/C=C/CCCCCC1CCCC(C)N1 (stereo unspecified)
inactive: dose: 6.25 mg/kg/injection, schedule: Q04DX002 (ip), vehicle: saline 96 % of control | dose: 12.5 mg/kg/injection, schedule: Q04DX002 (ip), vehicle: saline 96 % of control | dose: 25.0 mg/kg/injection, schedule: Q04DX002 (ip), vehicle: saline 111 % of control | dose: 50.0 mg/kg/injection, schedule: Q04DX002 (ip), vehicle: saline 90 % of control

O=C1CNCSC1
inactive: dose: 100.0 mg/kg/injection, schedule: Q04DX002 (ip), vehicle: saline 102 % of control | dose: 200.0 mg/kg/injection, schedule: Q04DX002 (ip), vehicle: saline 115 % of control | dose: 400.0 mg/kg/injection, schedule: Q04DX002 (ip), vehicle: saline 94 % of control

COc1cc(C2=N/C(=C\c3cc(Cl)cc(Cl)c3O)C(=O)O2)cc(OC)c1OC
inactive: dose: 100.0 mg/kg/injection, schedule: Q04DX002 (ip), vehicle: Klucel (hydroxypropylcellulose) (HPC) 107 % of control | dose: 200.0 mg/kg/injection, schedule: Q04DX002 (ip), vehicle: Klucel (hydroxypropylcellulose) (HPC) 110 % of control | dose: 400.0 mg/kg/injection, schedule: Q04DX002 (ip), vehicle: Klucel (hydroxypropylcellulose) (HPC) 100 % of control

Nc1ncnc2c1ccn2C1OC(CO)C(O)C1O (stereo unspecified)
inactive: dose: 0.25 mg/kg/injection, schedule: Q01DX Z (ip), vehicle: carboxymethylcellulose (CMC) 101 % of control | dose: 0.5 mg/kg/injection, schedule: Q01DX001 (ip), vehicle: carboxymethylcellulose (CMC) 108 % of control | dose: 0.5 mg/kg/injection, schedule: Q01DX Z (ip), vehicle: carboxymethylcellulose (CMC) 104 % of control | dose: 0.5 mg/kg/injection, schedule: Q02DX009 (ip), vehicle: carboxymethylcellulose (CMC) 109 % of control | dose: 0.5 mg/kg/injection, schedule: Q## X003 (ip), vehicle: carboxymethylcellulose (CMC) 110 % of control | dose: 0.75 mg/kg/injection, schedule: Q01DX Z (ip), vehicle: carboxymethylcellulose (CMC) 104 % of control | dose: 1.0 mg/kg/injection, schedule: Q01DX001 (ip), vehicle: carboxymethylcellulose (CMC) 113 % of control | dose: 1.0 mg/kg/injection, schedule: Q01DX Z (ip), vehicle: carboxymethylcellulose (CMC) 106 % of control | dose: 1.0 mg/kg/injection, schedule: Q02DX009 (ip), vehicle: carboxymethylcellulose (CMC) 115 % of control | dose: 1.0 mg/kg/injection, schedule: Q## X003 (ip), vehicle: carboxymethylcellulose (CMC) 111 % of control | dose: 1.0 mg/kg/injection, schedule: Q## X005 (ip), vehicle: carboxymethylcellulose (CMC) 113 % of control | dose: 1.2 mg/kg/injection, schedule: Q01DX001 (ip), vehicle: carboxymethylcellulose (CMC) 107 % of control | dose: 1.25 mg/kg/injection, schedule: Q01DX Z (ip), vehicle: carboxymethylcellulose (CMC) 116 % of control | dose: 1.9 mg/kg/injection, schedule: Q01DX001 (ip), vehicle: carboxymethylcellulose (CMC) 119 % of control | dose: 2.0 mg/kg/injection, schedule: Q02DX009 (ip), vehicle: carboxymethylcellulose (CMC) 122 % of control | dose: 2.0 mg/kg/injection, schedule: Q## X003 (ip), vehicle: carboxymethylcellulose (CMC) 123 % of control | dose: 2.0 mg/kg/injection, schedule: Q## X005 (ip), vehicle: carboxymethylcellulose (CMC) 120 % of control | dose: 2.5 mg/kg/injection, schedule: Q01DX Z (ip), vehicle: carboxymethylcellulose (CMC) 98 % of control | dose: 4.0 mg/kg/injection, schedule: Q## X005 (ip), vehicle: carboxymethylcellulose (CMC) 102 % of control

O=S(=O)(Cl)c1ccc(F)cc1
inactive: [6] 98 % of control | [7] 96 % of control | [8] 90 % of control

NC(=O)N/C=N/N=C(N)N
inactive: dose: 15.0 mg/kg/injection, schedule: Q01DX Z (ip), vehicle: methylcellulose (MC) 101 % of control | dose: 30.0 mg/kg/injection, schedule: Q01DX Z (ip), vehicle: methylcellulose (MC) 107 % of control | dose: 60.0 mg/kg/injection, schedule: Q01DX Z (ip), vehicle: methylcellulose (MC) 108 % of control | dose: 120.0 mg/kg/injection, schedule: Q01DX Z (ip), vehicle: methylcellulose (MC) 108 % of control | dose: 240.0 mg/kg/injection, schedule: Q01DX Z (ip), vehicle: methylcellulose (MC) 94 % of control | dose: 420.0 mg/kg/injection, schedule: Q01DX Z (ip), vehicle: methylcellulose (MC) 94 % of control | dose: 600.0 mg/kg/injection, schedule: Q01DX Z (ip), vehicle: methylcellulose (MC) 86 % of control

CCOC(=O)c1cc([N+](=O)[O-])c([N+](=O)[O-])cc1Cl
inactive: [3] 102 % of control | [4] 103 % of control | [5] 98 % of control

CN(C)c1ccc(C=NCCCO)cc1
inactive: dose: 100.0 mg/kg/injection, schedule: Q04DX002 (ip), vehicle: saline with Tween-80 92 % of control | dose: 200.0 mg/kg/injection, schedule: Q04DX002 (ip), vehicle: saline with Tween-80 103 % of control

CC1(C)C2CCC1(C)C(/C=N/NC(N)=O)C2 (stereo unspecified)
inactive: dose: 100.0 mg/kg/injection, schedule: Q01DX001 (ip), vehicle: Klucel (hydroxypropylcellulose) (HPC) 94 % of control | dose: 200.0 mg/kg/injection, schedule: Q01DX001 (ip), vehicle: Klucel (hydroxypropylcellulose) (HPC) 102 % of control | dose: 400.0 mg/kg/injection, schedule: Q01DX001 (ip), vehicle: Klucel (hydroxypropylcellulose) (HPC) 105 % of control
